Active and inactive are the calls of the source.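 The calls were made as follows: active = signal-decreasing dose-response curve whose fitted half-maximal concentration is at or below twice the highest valid tested dose; inconclusive = flat fit at 30 to 70% signal loss, or poor fit; inactive = the rest.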
Assay: cytotoxicity in mammalian cells, dose response, cytotoxicity control for PDI inhibitor project, cell-based, 24 h, luminescence, cherry-picked samples (AID 624285)
Conditions: NIH3T3/HeLa viability, CellTiter-Glo ATP luminescence, 24 h; at 35 µM (top of the series)
For `CCCCn1c(N)c(N(CC(C)C)C(=O)c2cc(-c3ccncc3)nc3ccccc23)c(=O)[nH]c1=O`, the activity change, negative = cytotoxicity was -9.75% (inactive).
In the case of `C[C@@H]1O[C@@H](OC[C@@H]2O[C@H](Oc3c(-c4ccc(O)cc4)oc4cc(O)cc(O)c4c3=O)[C@@H](O)[C@H](O)[C@H]2O)[C@H](O)[C@H](O)[C@H]1O`, the activity change, negative = cytotoxicity is reported as 0.405% (inactive).
With `COc1ccc(C2c3ccc(O)cc3Oc3ncn(Cc4ccco4)c(=N)c32)cc1OC` (stereo not given) the activity change, negative = cytotoxicity was -14.4% (inactive).
In the case of `COC(=O)c1ccc(COC(=O)CSCC(=O)Nc2ccc(C)cc2C)cc1`, the activity change, negative = cytotoxicity is reported as -2.15% (inactive).
With `CCOc1ccc2nc(NS(=O)(=O)Cc3ccccc3)sc2c1` the activity change, negative = cytotoxicity was -6.13% (inactive).
In the case of `COc1cccc(/C=N/NC(=O)CNC(=O)C(c2ccccc2)c2ccccc2)c1O`, the activity change, negative = cytotoxicity is reported as -15.7% (inactive).
In the case of `Cc1noc(C)c1S(=O)(=O)Nc1ccc2c(c1)CC(=O)N([C@H](C)CO)C[C@@H](C)[C@@H](CN(C)S(=O)(=O)c1ccc(F)cc1)O2`, the activity change, negative = cytotoxicity is reported as -0.682% (inactive).
For `O=C(NCc1ccccn1)Nc1cccc(Cl)c1`, the activity change, negative = cytotoxicity was -8.23% (inactive).
With `C[C@@H]1CN([C@H](C)CO)C(=O)Cc2cc(NC(=O)Nc3ccccc3)ccc2O[C@H]1CN(C)Cc1ccccc1` the activity change, negative = cytotoxicity was 1.49% (inactive).
With `O=S(=O)(c1cc(F)ccc1F)N1CCN(c2ncccn2)CC1` the activity change, negative = cytotoxicity was -15.2% (inactive).
With `CCCn1nnnc1NC(=O)c1cccs1` the activity change, negative = cytotoxicity was -5.77% (inactive).
With `O=C(NC1CCCCC1)C1CCN(S(=O)(=O)c2cccs2)CC1` the activity change, negative = cytotoxicity was -7.67% (inactive).
For `CCn1c(SCC(=O)NC2CC2)nnc1-c1ccccc1`, the activity change, negative = cytotoxicity was -6.27% (inactive).
In the case of `CCOC(=O)C1(C)CCCN(C(=O)c2cccc(Cl)c2)C1` (stereo not given), the activity change, negative = cytotoxicity is reported as -5.27% (inactive).
With `CC(C)Oc1cccc(C(=O)NC(=S)Nc2cccc(NC(=O)c3ccccc3Cl)c2)c1` the activity change, negative = cytotoxicity was -18.2% (inactive).
In the case of `COc1cccc(/C=C2\CCCCC2=O)c1`, the activity change, negative = cytotoxicity is reported as -7.65% (inactive).
For `COc1ccccc1NS(=O)(=O)c1cccc(C(=O)NCC2(N3CCCCC3)CCCCC2)c1`, the activity change, negative = cytotoxicity was -10.5% (inactive).
With `CCc1ccc(NC(=O)Nc2ccncc2)cc1` the activity change, negative = cytotoxicity was -3.55% (inactive).
In the case of `Cc1cc(C)c(C)c(S(=O)(=O)N2CCC(C(=O)N(C)Cc3nc4ccccc4c(=O)[nH]3)CC2)c1C`, the activity change, negative = cytotoxicity is reported as -5.52% (inactive).
In the case of `CC1(C)CC[C@]2(C(=O)O)CC[C@]3(C)C(=CC[C@@H]4[C@@]5(C)CC[C@H](O[C@@H]6O[C@H](C(=O)O)[C@@H](O)[C@H](O[C@@H]7OC[C@H](O)[C@H](O)[C@H]7O)[C@H]6O)C(C)(C)[C@@H]5CC[C@]43C)[C@@H]2C1`, the activity change, negative = cytotoxicity is reported as -3.34% (inactive).
In the case of `COc1ccc(OC)c(CN2CCN(Cc3cc(=O)oc4cc(O)ccc34)CC2)c1`, the activity change, negative = cytotoxicity is reported as -20.6% (inactive).
In the case of `CN(C)S(=O)(=O)c1ccc(C(=O)Nc2ccc3nc(N4CCOCC4)sc3c2)cc1`, the activity change, negative = cytotoxicity is reported as -20.7% (inactive).
With `COc1cc(C2C(C(C)=O)=C(O)C(=O)N2CCc2c[nH]c3ccccc23)ccc1O` (stereo not given) the activity change, negative = cytotoxicity was -5.75% (inactive).
With `CCOc1ccc2[nH]c(=O)c(CN(CCO)C(=O)CC)cc2c1` the activity change, negative = cytotoxicity was -9.33% (inactive).
For `O=C1C[C@H](c2ccc(O)cc2)Oc2cc(O[C@@H]3O[C@H](CO)[C@@H](O)[C@H](O)[C@H]3O)cc(O[C@@H]3O[C@H](CO)[C@@H](O)[C@H](O)[C@H]3O)c21`, the activity change, negative = cytotoxicity was -8.86% (inactive).
In the case of `CCN(CC(=O)Nc1ccc2c(c1)OCCO2)C(=O)CC1CCCC1`, the activity change, negative = cytotoxicity is reported as -11.8% (inactive).
For `Cc1ccc(O)c(NC(=O)CSc2n[nH]c(-c3ccccc3)n2)c1`, the activity change, negative = cytotoxicity was -16.4% (inactive).
With `CN1CCN(C(=O)CSc2nnc(COc3ccc(Cl)cc3)o2)CC1` the activity change, negative = cytotoxicity was -3.96% (inactive).
With `CCOC(=O)c1c(CN(CC)CC)n(C)c2cc(Br)c(O)cc12` the activity change, negative = cytotoxicity was -10.4% (inactive).
For `COCC(=O)N(C)C1(c2nnnn2CCOC(=O)Nc2ccc(Cl)cc2)CCCCC1`, the activity change, negative = cytotoxicity was -4.92% (inactive).

From PubChem BioAssay AID624285 (Broad Institute, 2012)
